Patent publication US7968591B2, “1,3-disubstituted 4-methyl-1H-pyrrole-2-carboxamides and their use in medicaments” (Gruenenthal GmbH, priority 2006, dated 2011)

biological target: T1, 5-HT uptake (Rattus norvegicus, UniProt P31652); assay: 5-HT uptake inhibition in rat brain synaptosomes; type: biochemical; conditions: synaptosomes from rat medulla and pons, [3H]-5-HT
T1 construct: from tissue; host or cells: rat brain medulla and pons, synaptosomes (P2 fraction)
From the text: (§1) I. Method for Determining Noradrenalin and 5-HT Uptake Inhibition:
(§2) Synaptosomes from rat brain regions were freshly isolated for in vitro studies, as described in the publication “The isolation of nerve endings from brain” by E. G. Gray and V. P. Whittaker, J. Anatomy 96, pages 79-88, 1962. The corresponding literature description is hereby introduced as a reference and is deemed to be part of the disclosure.
(§3) The tissue (hypothalamus for the determination of noradrenalin uptake inhibition and medulla and pons for the determination of 5-HT uptake inhibition) was homogenized in ice-cooled 0.32 M sucrose (100 mg of tissue/1 mL) in a glass homogenizer with Teflon pestle using five complete up and down strokes at 840 revolutions/minute. The homogenate was centrifuged at 4° C. for 10 minutes at 1000 g. After subsequent centrifugation at 17000 g for 55 minutes, the synaptosomes (P2 fraction) were obtained, which were resuspended in 0.32 M glucose (0.5 mL/100 mg of original weight). The particular uptake was measured in a 96-well microtitre plate. The volume was 250 μl and incubation proceeded at room temperature (approx. 20-25° C.) under an O2 atmosphere. The incubation time was 7.5 minutes for [^3H]-NA and 5 minutes for [^3H]-5-HT. The 96 samples were then filtered through a Unifilter GF/B® microtitre plate (Packard) and washed with […] of incubated buffer using a “Brabdel MPXRI-96T Cell-Harvester”. The Unifilter GF/B plate was dried for 1 hour at 55° C. The plate was then sealed with a Back Seal® (Packard) and 35 μl of scintillation fluid were added per well (Ultima Gold®, Packard). After sealing with a top Seal® (Packard) and establishing an equilibrium (around 5 hours), radioactivity was determined in a “Trilux 1450 Microbeta” (Wallac).
(§4) A detailed description of the method may additionally be found in the literature, for example in M. Ch. Frink, H.-H. Hennies, W. Engelberger, M. Haurand and B. Wilffert (1996) Arzneim.-Forsch./Drug Res. 46 (III), 11, 1029-1036.

T1 sequence (P31652 whole entry): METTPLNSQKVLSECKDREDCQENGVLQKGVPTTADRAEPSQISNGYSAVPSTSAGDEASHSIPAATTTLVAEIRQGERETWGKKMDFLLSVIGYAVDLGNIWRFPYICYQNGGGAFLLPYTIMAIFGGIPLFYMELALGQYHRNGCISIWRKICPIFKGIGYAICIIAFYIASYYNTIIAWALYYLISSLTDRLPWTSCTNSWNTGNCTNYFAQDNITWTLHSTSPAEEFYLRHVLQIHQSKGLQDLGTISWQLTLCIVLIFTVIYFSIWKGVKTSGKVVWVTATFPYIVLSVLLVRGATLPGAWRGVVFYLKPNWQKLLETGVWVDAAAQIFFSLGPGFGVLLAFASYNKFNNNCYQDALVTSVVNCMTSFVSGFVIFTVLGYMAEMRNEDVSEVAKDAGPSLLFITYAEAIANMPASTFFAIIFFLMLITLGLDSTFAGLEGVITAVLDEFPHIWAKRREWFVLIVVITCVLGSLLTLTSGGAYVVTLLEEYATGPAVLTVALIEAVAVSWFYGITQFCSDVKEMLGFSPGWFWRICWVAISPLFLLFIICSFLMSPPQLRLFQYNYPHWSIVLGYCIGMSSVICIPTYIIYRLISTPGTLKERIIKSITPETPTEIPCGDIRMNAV

| Compound | inhibition at 10 µM [%] |
| --- | --- |
| COc1ccc(CNC(=O)c2c(-c3ccco3)c(C)cn2Cc2ccc(F)cc2)c(OC)c1 [Example 3, 1-(4-fluorobenzyl)-3-furan-2-yl-4-methyl-1H-pyrrole-2-carboxylic acid 2,4-dimethoxybenzylamide] | 58 |
| CCCCn1cc(C)c(-c2ccc(C)cc2)c1C(=O)NCCc1ccccn1 [Example 4, 1-butyl-4-methyl-3-p-tolyl-1H-pyrrole-2-carboxylic acid (2-pyridin-2-ylethyl)-amide] | 39 |
| Cc1ccc(Cn2cc(C)c(-c3ccc(C)cc3)c2C(=O)N2CCN(c3ccc(C)cc3C)CC2)cc1 [Example 18, [4-(2,4-dimethylphenyl)-piperazin-1-yl]-[4-methyl-1-(4-methylbenzyl)-3-p-tolyl-1H-pyrrol-2-yl]-methanone] | 50 |
| Cc1ccc(-c2c(C)cn(Cc3c(Cl)cccc3Cl)c2C(=O)N(C)CCc2ccccn2)cc1 [Example 19, 1-(2,6-dichlorobenzyl)-4-methyl-3-p-tolyl-1H-pyrrole-2-carboxylic acid methyl-(2-pyridin-2-ylethyl)-amide] | 39 |
| Cc1ccc(-c2c(C)cn(C)c2C(=O)N2CCN(C3CCCCCC3)CC2)cc1 [Example 24, (4-cycloheptylpiperazin-1-yl)-(1,4-dimethyl-3-p-tolyl-1H-pyrrol-2-yl)-methanone] | 54 |
| COc1ccc(-c2c(C)cn(Cc3ccc(F)cc3)c2C(=O)NC(C)C(=O)OCc2ccccc2)cc1 (stereo not shown) [Example 29, 2-{[1-(4-fluorobenzyl)-3-(4-methoxyphenyl)-4-methyl-1H-pyrrole-2-carbonyl]-amino}-propionic acid benzyl ester] | 52 |
| CCn1cc(C)c(-c2ccc(Cl)cc2)c1C(=O)NCc1cccc(OC)c1OC [Example 34, 3-(4-chlorophenyl)-1-ethyl-4-methyl-1H-pyrrole-2-carboxylic acid 2,3-dimethoxybenzylamide] | 37 |
| CCn1cc(C)c(-c2ccc(Cl)cc2)c1C(=O)NC(C(=O)OC(C)(C)C)C(C)C (stereo not shown) [Example 36, 2-{[3-(4-chlorophenyl)-1-ethyl-4-methyl-1H-pyrrole-2-carbonyl]-amino}-3-methylbutyric acid tert.-butyl ester] | 74 |
| COc1ccc(Cn2cc(C)c(-c3ccco3)c2C(=O)NC2CCCc3ccccc32)cc1 (stereo not shown) [Example 37, 3-furan-2-yl-1-(4-methoxybenzyl)-4-methyl-1H-pyrrole-2-carboxylic acid (1,2,3,4-tetrahydro-naphthalen-1-yl)-amide] | 68 |
| COc1ccc(Cn2cc(C)c(-c3ccc(C)cc3)c2C(=O)N(C)CC(=O)OCc2ccccc2)cc1 [Example 39, {[1-(4-methoxybenzyl)-4-methyl-3-p-tolyl-1H-pyrrole-2-carbonyl]-methylamino}-acetic acid benzyl ester] | 54 |
| CCOc1ccc(Br)cc1CN1CCN(C(=O)c2c(-c3ccccc3)c(C)cn2C)CC1 [Example 41, [4-(5-bromo-2-ethoxybenzyl)-piperazin-1-yl]-(1,4-dimethyl-3-phenyl-1H-pyrrol-2-yl)-methanone] | 37 |
| Cc1ccccc1N1CCN(C(=O)c2c(-c3ccc(Cl)cc3)c(C)cn2C)CC1 [Example 46, [3-(4-chlorophenyl)-1,4-dimethyl-1H-pyrrol-2-yl]-(4-o-tolylpiperazin-1-yl)-methanone] | 34 |
| CCOc1ccc(CCNC(=O)c2c(-c3ccc(OC)cc3)c(C)cn2Cc2ccc(F)cc2)cc1 [Example 47, 1-(4-fluorobenzyl)-3-(4-methoxyphenyl)-4-methyl-1H-pyrrole-2-carboxylic acid [2-(4-ethoxyphenyl)-ethyl]-amide] | 67 |
| COc1cc(OC)c(CN2CCN(C(=O)c3c(-c4ccc(C)cc4)c(C)cn3C)CC2)c(OC)c1 [Example 49, (1,4-dimethyl-3-p-tolyl-1H-pyrrol-2-yl)-[4-(2,4,6-trimethoxybenzyl)-piperazin-1-yl]-methanone] | 30 |
| Cc1cn(C)c(C(=O)N2CCN(c3ccncc3)CC2)c1-c1ccc(Cl)cc1 [Example 57, [3-(4-chlorophenyl)-1,4-dimethyl-1H-pyrrol-2-yl]-(4-pyridin-4-ylpiperazin-1-yl)-methanone] | 66 |
| Cc1cn(Cc2ccccc2F)c(C(=O)NCCCn2ccnc2)c1-c1ccc(Cl)cc1 [Example 58, 3-(4-chlorophenyl)-1-(2-fluorobenzyl)-4-methyl-1H-pyrrole-2-carboxylic acid (3-imidazol-1-ylpropyl)-amide] | 50 |
| Cc1cn(Cc2ccccc2)c(C(=O)NCCc2ccc(Br)cc2)c1-c1ccco1 [Example 60, 1-benzyl-3-furan-2-yl-4-methyl-1H-pyrrole-2-carboxylic acid [2-(4-bromophenyl)-ethyl]-amide] | 67 |
| Cc1cn(C)c(C(=O)N2CCN(C3CCCCCC3)CC2)c1-c1ccco1 [Example 61, (4-cycloheptylpiperazin-1-yl)-(3-furan-2-yl-1,4-dimethyl-1H-pyrrol-2-yl)-methanone] | 52 |
| COc1ccc(OCCNC(=O)c2c(-c3ccccc3)c(C)cn2Cc2ccccc2)cc1 [Example 62, 1-benzyl-4-methyl-3-phenyl-1H-pyrrole-2-carboxylic acid [2-(4-methoxyphenoxy)-ethyl]-amide] | 73 |
| Cc1cn(Cc2ccc(F)cc2)c(C(=O)NCCCN(C)C)c1-c1ccco1 [Example 63, 1-(4-fluorobenzyl)-3-furan-2-yl-4-methyl-1H-pyrrole-2-carboxylic acid (3-dimethylamino-propyl)-amide] | 50 |
| COc1ccc(-c2c(C)cn(C)c2C(=O)N2CCN(c3cccc(Cl)c3)CC2)cc1 [Example 70, [4-(3-chlorophenyl)-piperazin-1-yl]-[3-(4-methoxyphenyl)-1,4-dimethyl-1H-pyrrol-2-yl]-methanone] | 54 |

biological target: T2, NA transporter (Rattus norvegicus, UniProt Q63380); assay: Noradrenalin uptake inhibition in rat brain synaptosomes; type: biochemical; conditions: synaptosomes from rat hypothalamus, [3H]-NA
T2 construct: from tissue; host or cells: rat brain hypothalamus, synaptosomes (P2 fraction)
T2 sequence (Q63380 1-617): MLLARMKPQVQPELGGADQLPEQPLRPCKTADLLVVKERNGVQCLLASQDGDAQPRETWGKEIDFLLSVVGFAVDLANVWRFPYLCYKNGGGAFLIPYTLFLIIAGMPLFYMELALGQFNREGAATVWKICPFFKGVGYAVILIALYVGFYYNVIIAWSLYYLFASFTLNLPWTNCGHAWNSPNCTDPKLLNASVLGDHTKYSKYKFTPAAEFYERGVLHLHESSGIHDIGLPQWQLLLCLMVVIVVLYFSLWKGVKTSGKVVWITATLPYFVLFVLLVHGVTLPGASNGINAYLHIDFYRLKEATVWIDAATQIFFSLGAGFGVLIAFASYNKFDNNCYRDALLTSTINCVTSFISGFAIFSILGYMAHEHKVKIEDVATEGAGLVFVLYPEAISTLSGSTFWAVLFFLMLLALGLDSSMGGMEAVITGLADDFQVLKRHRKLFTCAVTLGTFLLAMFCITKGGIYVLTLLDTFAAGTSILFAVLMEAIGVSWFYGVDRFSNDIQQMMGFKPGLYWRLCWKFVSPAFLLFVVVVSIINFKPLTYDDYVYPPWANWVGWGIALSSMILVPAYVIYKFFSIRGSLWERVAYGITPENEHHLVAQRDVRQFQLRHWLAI
From the text: as §1, §2, §3, §4

| Compound | inhibition at 10 µM [%] |
| --- | --- |
| Cc1cn(Cc2ccccc2)c(C(=O)N2CCN(c3ccccc3Cl)CC2)c1-c1ccc(Cl)cc1 [Example 8, [1-benzyl-3-(4-chlorophenyl)-4-methyl-1H-pyrrol-2-yl]-[4-(2-chlorophenyl)-piperazin-1-yl]-methanone] | 70 |
| Cc1ccc(-c2c(C)cn(C)c2C(=O)N2CCN(C3CCCCCC3)CC2)cc1 [Example 24, (4-cycloheptylpiperazin-1-yl)-(1,4-dimethyl-3-p-tolyl-1H-pyrrol-2-yl)-methanone] | 33 |
| Cc1cn(Cc2ccccc2)c(C(=O)NCc2ccccn2)c1-c1ccccc1 [Example 26, 1-benzyl-4-methyl-3-phenyl-1H-pyrrole-2-carboxylic acid (pyridin-2-ylmethyl)-amide] | 33 |
| Cc1cn(CC(C)C)c(C(=O)NCc2ccc(N(C)C)cc2)c1-c1ccc(Cl)cc1 [Example 32, 3-(4-chlorophenyl)-1-isobutyl-4-methyl-1H-pyrrole-2-carboxylic acid 4-dimethylaminobenzylamide] | 35 |
| COc1ccc(-c2c(C)cn(Cc3ccc(F)cc3)c2C(=O)NCCc2cccs2)cc1 [Example 35, 1-(4-fluorobenzyl)-3-(4-methoxyphenyl)-4-methyl-1H-pyrrole-2-carboxylic acid (2-thiophen-2-ylethyl)-amide] | 37 |
| Cc1ccccc1N1CCN(C(=O)c2c(-c3ccc(Cl)cc3)c(C)cn2C)CC1 [Example 46, [3-(4-chlorophenyl)-1,4-dimethyl-1H-pyrrol-2-yl]-(4-o-tolylpiperazin-1-yl)-methanone] | 63 |
| Cc1cn(C)c(C(=O)N2CCN(C3CCCCCC3)CC2)c1-c1ccco1 [Example 61, (4-cycloheptylpiperazin-1-yl)-(3-furan-2-yl-1,4-dimethyl-1H-pyrrol-2-yl)-methanone] | 34 |
| Cc1cn(Cc2ccc(F)cc2)c(C(=O)NCCCN(C)C)c1-c1ccco1 [Example 63, 1-(4-fluorobenzyl)-3-furan-2-yl-4-methyl-1H-pyrrole-2-carboxylic acid (3-dimethylamino-propyl)-amide] | 57 |
| CCN(CC)CCCNC(=O)c1c(-c2ccc(Cl)cc2)c(C)cn1CC(C)C [Example 65, 3-(4-chlorophenyl)-1-isobutyl-4-methyl-1H-pyrrole-2-carboxylic acid (3-diethylamino-propyl)-amide] | 35 |
| COc1ccc(-c2c(C)cn(C)c2C(=O)N2CCN(c3cccc(Cl)c3)CC2)cc1 [Example 70, [4-(3-chlorophenyl)-piperazin-1-yl]-[3-(4-methoxyphenyl)-1,4-dimethyl-1H-pyrrol-2-yl]-methanone] | 69 |
| Cc1cn(C)c(C(=O)NCCCN2CCCCC2C)c1-c1ccc(Cl)cc1 (stereo not shown) [Example 78, 3-(4-chlorophenyl)-1,4-dimethyl-1H-pyrrole-2-carboxylic acid [3-(2-methylpiperidin-1-yl)-propyl]-amide] | 32 |
| Cc1cn(C)c(C(=O)NCc2ccc(F)cc2C(F)(F)F)c1-c1ccco1 [Example 80, 3-furan-2-yl-1,4-dimethyl-1H-pyrrole-2-carboxylic acid 4-fluoro-2-trifluoromethylbenzylamide] | 30 |
| Cc1cn(Cc2ccccc2)c(C(=O)NC(C)c2ccc3ccccc3c2)c1-c1ccco1 (stereo not shown) [Example 81, 1-benzyl-3-furan-2-yl-4-methyl-1H-pyrrole-2-carboxylic acid (1-naphthalen-2-ylethyl)-amide] | 57 |
